Source: ChEMBL document CHEMBL4190346, “Structure-based design, synthesis, and biological evaluation of withaferin A-analogues as potent apoptotic inducers” (Eur J Med Chem, 2017)

Key:
[1] = tested on: HeLa; experiment: Cytotoxicity against human HeLa cells assessed as reduction in cell viability using compound addition to cell culture cells in lag phase of growth and incubated for 48 hrs by MTT assay; assay type: functional, cell-based
[2] = tested on: HeLa; experiment: Cytotoxicity against human HeLa cells assessed as reduction in cell viability using compound addition to cell culture cells in log phase of growth and incubated for 48 hrs by MTT assay; assay type: functional, cell-based
[3] = tested on: A549; experiment: Cytotoxicity against human A549 cells assessed as reduction in cell viability using compound addition to cell culture cells in lag phase of growth and incubated for 48 hrs by MTT assay; assay type: functional, cell-based
[4] = tested on: A549; experiment: Cytotoxicity against human A549 cells assessed as reduction in cell viability using compound addition to cell culture cells in log phase of growth and incubated for 48 hrs by MTT assay; assay type: functional, cell-based
[5] = tested on: MCF7; experiment: Cytotoxicity against human MCF7 cells assessed as reduction in cell viability using compound addition to cell culture cells in lag phase of growth and incubated for 48 hrs by MTT assay; assay type: functional, cell-based
[6] = tested on: MCF7; experiment: Cytotoxicity against human MCF7 cells assessed as reduction in cell viability using compound addition to cell culture cells in log phase of growth and incubated for 48 hrs by MTT assay; assay type: functional, cell-based
[7] = tested on: Vero; experiment: Cytotoxicity against African green monkey Vero cells assessed as reduction in cell viability using compound addition to cell culture cells in lag phase of growth and incubated for 48 hrs by MTT assay; assay type: cell-based, Chlorocebus sabaeus
[8] = tested on: Vero; experiment: Cytotoxicity against African green monkey Vero cells assessed as reduction in cell viability using compound addition to cell culture cells in log phase of growth and incubated for 48 hrs by MTT assay; assay type: cell-based, Chlorocebus sabaeus
[9] = tested on: MCF7; experiment: Ratio of IC50 for cytotoxicity against human MCF7 cells incubated for 48 hrs to IC50 for cytotoxicity against human MCF7 cells incubated for 72 hrs; assay type: functional
[10] = tested on: MCF7 (Homo sapiens); experiment: Ratio of IC50 for cytotoxicity against human MCF7 cells incubated for 48 hrs to IC50 for cytotoxicity against human MCF7 cells incubated for 72 hrs
[11] = tested on: MCF7 (Homo sapiens); experiment: as above; remark: listed apart in the source
[12] = Homo sapiens, HeLa, 48 h, read-out: IC50
[13] = Homo sapiens, A549, 48 h, read-out: IC50
[14] = Homo sapiens, MCF7, 48 h, read-out: IC50
[15] = Chlorocebus sabaeus, Vero, 48 h, read-out: IC50

| Structure (SMILES) | IC50 [1, 12] | IC50 [2, 12] | IC50 [3, 13] | IC50 [4, 13] | IC50 [5, 14] | IC50 [6, 14] | IC50 [7, 15] | IC50 [8, 15] | Ratio IC50 [9] | Ratio IC50 [10] | Ratio IC50 [11] | IC50 ([1]; hela) | IC50 ([2]; hela) | IC50 ([3]; a549) | IC50 ([4]; a549) | IC50 ([5]; mcf7) | IC50 ([6]; mcf7) | IC50 ([7]; vero) | IC50 ([8]; vero) |
| --- | --- | --- | --- | --- | --- | --- | --- | --- | --- | --- | --- | --- | --- | --- | --- | --- | --- | --- | --- |
| CCCCCCCC(=O)OCC1=C(C)C[C@H]([C@@H](C)[C@H]2CC[C@H]3[C@@H]4C[C@H]5O[C@]56[C@@H](OC(=O)CCCCCCC)C=CC(=O)[C@]6(C)[C@H]4CC[C@]23C)OC1=O | 33.8 µM | > 40 µM | > 40 µM | > 40 µM | 23.8 µM | 33.5 µM | 3.3 µM | 18.3 µM | >3 | >3 | >3 | – | – | – | – | – | – | – | – |
| CC1=C(CO)C(=O)O[C@@H]([C@@H](C)[C@H]2CC[C@H]3[C@@H]4C[C@@H](O)[C@]56ON[C@H](CC(=O)[C@]5(C)[C@H]4CC[C@]23C)[C@@H]6O)C1 | > 40 µM | > 40 µM | > 40 µM | > 40 µM | > 40 µM | > 40 µM | > 40 µM | > 40 µM | – | – | – | – | – | – | – | – | – | – | – |
| CC1=C(CO)C(=O)O[C@@H]([C@@H](C)[C@H]2CC[C@H]3[C@@H]4C[C@@H](O)[C@]5(C=O)C=CC(=O)[C@]5(C)[C@H]4CC[C@]23C)C1 | – | > 40 µM | – | > 40 µM | – | > 40 µM | – | > 40 µM | >3 | >3 | >3 | – | – | – | – | – | – | – | – |
| C[C@@H]([C@H]1CC[C@H]2[C@@H]3C[C@H]4O[C@]45[C@@H](O)[C@H]4O[C@H]4C(=O)[C@]5(C)[C@H]3CC[C@]12C)[C@H]1C[C@@]2(C)O[C@@]2(CO)C(=O)O1 | > 40 µM | > 40 µM | > 40 µM | > 40 µM | > 40 µM | > 40 µM | > 40 µM | > 40 µM | – | – | – | – | – | – | – | – | – | – | – |
| CC(=O)OCC1=C(C)C[C@H]([C@@H](C)[C@H]2CC[C@H]3[C@@H]4C[C@H](Cl)[C@]5(O)[C@@H](O)C=CC(=O)[C@]5(C)[C@H]4CC[C@]23C)OC1=O | 16.1 µM | 14.8 µM | 10.8 µM | 17.1 µM | 10.9 µM | 7.2 µM | 4.8 µM | 6.5 µM | – | – | – | – | – | – | – | – | – | – | – |
| CCCCCCCC(=O)OCC1=C(C)C[C@H]([C@@H](C)[C@H]2CC[C@H]3[C@@H]4C[C@H](Cl)[C@]5(O)[C@@H](OC(=O)CCCCCCC)C=CC(=O)[C@]5(C)[C@H]4CC[C@]23C)OC1=O | > 40 µM | > 40 µM | > 40 µM | > 40 µM | > 40 µM | > 40 µM | > 40 µM | > 40 µM | – | – | – | – | – | – | – | – | – | – | – |
| CC(=O)OCC1=C(C)C[C@H]([C@@H](C)[C@H]2CC[C@H]3[C@@H]4C[C@H]5O[C@]56[C@@H](OC(=O)c5ccc(Br)cc5)C=CC(=O)[C@]6(C)[C@H]4CC[C@]23C)OC1=O | 1.2 µM | 2.1 µM | 2.1 µM | 1.7 µM | 0.4 µM | 0.6 µM | 0.5 µM | 0.9 µM | – | – | – | – | – | – | – | – | – | – | – |
| COc1ccc(C(=O)OCC2=C(C)C[C@H]([C@@H](C)[C@H]3CC[C@H]4[C@@H]5C[C@H](Cl)[C@]6(O)[C@@H](OC(=O)c7ccc(OC)cc7)C=CC(=O)[C@]6(C)[C@H]5CC[C@]34C)OC2=O)cc1 | 11.2 µM | 28.1 µM | 24 µM | > 40 µM | 3 µM | 4.5 µM | 3.7 µM | 3 µM | – | – | – | – | – | – | – | – | – | – | – |
| COC(=O)CCC(=O)OCC1=C(C)C[C@H]([C@@H](C)[C@H]2CC[C@H]3[C@@H]4C[C@H]5O[C@]56[C@@H](OC(=O)CCC(=O)OC)C=CC(=O)[C@]6(C)[C@H]4CC[C@]23C)OC1=O | 1.8 µM | 2.9 µM | 2.1 µM | 3.4 µM | 1.4 µM | 1.5 µM | 0.7 µM | 0.6 µM | – | – | – | – | – | – | – | – | – | – | – |
| CC1=C(CO)C(=O)O[C@@H]([C@@H](C)[C@H]2CC[C@H]3[C@@H]4C[C@H]5O[C@]56[C@@H](O)[C@@H](O)CC(=O)[C@]6(C)[C@H]4CC[C@]23C)C1 [VISCOSALACTONE B] | > 40 µM | > 40 µM | > 40 µM | > 40 µM | > 40 µM | > 40 µM | > 40 µM | > 40 µM | – | – | – | – | – | – | – | – | – | – | – |
| CC1=C(COC(=O)c2cccc3ccccc23)C(=O)O[C@@H]([C@@H](C)[C@H]2CC[C@H]3[C@@H]4C[C@H]5O[C@]56[C@@H](OC(=O)c5cccc7ccccc57)C=CC(=O)[C@]6(C)[C@H]4CC[C@]23C)C1 | > 40 µM | > 40 µM | > 40 µM | > 40 µM | > 40 µM | > 40 µM | > 40 µM | > 40 µM | – | – | – | – | – | – | – | – | – | – | – |
| CCCCCCCCCCCC(=O)OCC1=C(C)C[C@H]([C@@H](C)[C@H]2CC[C@H]3[C@@H]4C[C@H]5O[C@]56[C@@H](O)C=CC(=O)[C@]6(C)[C@H]4CC[C@]23C)OC1=O | 3.7 µM | 4.7 µM | 10.2 µM | 12.2 µM | 2.4 µM | 3.5 µM | 1.9 µM | 4.7 µM | – | – | – | – | – | – | – | – | – | – | – |
| CCCCCCCCCCCC(=O)OCC1=C(C)C[C@H]([C@@H](C)[C@H]2CC[C@H]3[C@@H]4C[C@H]5O[C@]56[C@@H](OC(=O)CCCCCCCCCCC)C=CC(=O)[C@]6(C)[C@H]4CC[C@]23C)OC1=O | – | – | – | – | – | – | – | – | – | – | – | Nd(Insoluble) | Nd(Insoluble) | Nd(Insoluble) | Nd(Insoluble) | Nd(Insoluble) | Nd(Insoluble) | Nd(Insoluble) | Nd(Insoluble) |
| CC1=C(CCl)C(=O)O[C@@H]([C@@H](C)[C@H]2CC[C@H]3[C@@H]4C[C@H]5O[C@]56[C@@H](O)C=CC(=O)[C@]6(C)[C@H]4CC[C@]23C)C1 | 2.5 µM | 2.8 µM | 2 µM | 3.6 µM | 1.1 µM | 1 µM | 0.5 µM | 0.6 µM | – | – | – | – | – | – | – | – | – | – | – |
| CCCCCCCC(=O)OCC1=C(C)C[C@H]([C@@H](C)[C@H]2CC[C@H]3[C@@H]4C[C@H](Cl)[C@]5(O)[C@@H](O)C=CC(=O)[C@]5(C)[C@H]4CC[C@]23C)OC1=O | 29.5 µM | 32.9 µM | 31.3 µM | > 40 µM | 15.1 µM | 13.8 µM | 16.4 µM | 16.1 µM | – | – | – | – | – | – | – | – | – | – | – |
| CCCCN[C@H]1CC(=O)[C@]2(C)[C@H]3CC[C@]4(C)[C@@H]([C@H](C)[C@H]5CC(C)=C(CO)C(=O)O5)CC[C@H]4[C@@H]3C[C@H]3O[C@]32[C@H]1O | 9.6 µM | 8.4 µM | 21.8 µM | 9.6 µM | 7.6 µM | 6.9 µM | 13.6 µM | 20.6 µM | – | – | – | – | – | – | – | – | – | – | – |
